Tested on: chronic constriction injury (CCI) of the sciatic nerve, rats
Test: Cold allodynia (acetone application) in chronic constriction injury model
Type: in vivo, rat
Details: neuropathic pain model as disclosed in Example 2
Experimental: Unilateral sciatic nerve injury was produced under deep anesthesia with i.p injection of sodium pentobarbital (Mebumal, 60 mg/kg), as described by Bennett and Xie (Pain, 33, 87-107(1988)). The common sciatic nerve was exposed and freed for about 10 mm at mid-thigh level. Four ligatures (Ethicon, 4.0 plain gut) were tied loosely around the nerve with about 1-mm spacing creating a chronic constriction injury (CCl), and the incision was closed.
Brisk foot withdrawal in response to acetone application was measured based on the method described by Choi et al. The acetone bubble was gently brought in touch with the plantar surface around the center, and the acetone quickly spread over the central part of the plantar surface of the foot. Applications were made five times (once every 5 min) to each paw. The score for each application was recorded as follows: foot withdrawal was scored as positive (1) and lack of withdrawal as negative (O). The total score (0 to 5) was taken as index for cold sensitivity of the foot […]. This approximates pain from a non-noxious stimulus, i.e. allodynia.
Cold allodynia response was measured 15, 30, 45, 60, 90 and 120 minutes after i.p. administration of ganaxolone (at 1 mg/kg, 3 mg/kg or 10 mg/kg) as well as prior to administration of the neurosteroid and prior to infliction of the neural injury. Table 1 provides the resulting measurement of cold allodynia response in groups of six rats per dosage level. The abbreviation “s.e.m.” means standard error mean.

Structure (SMILES): C[C@]12CC[C@@H](O)C[C@@H]1CC[C@H]1[C@@H]3CC[C@H](C(=O)CO)[C@@]3(C)CC(=O)[C@@H]12 [Alphadolone, reference compound]
- Activity in the neuropathic pain model: inactive
